The text below walks through data of US20240366729A1, “COMBINATION OF A NURR1 AGONIST WITH AT LEAST ONE OF AN ALDOSTERONE ANTAGONIST, AN INSULIN MODULATOR AND A SULFONYLUREA” (GENESIS PHARMA SA, priority 2021, published 2024).

Data set [1] relates to mouse model of intracerebral haemorrhage (ICH). The following applies: 40 mg/kg, cited from earlier work.
In data set [2] the test system is rat model of transient middle cerebral artery occlusion (t-MCAO). Description: Neurological score (NSS), rat t-MCAO model, 7-day treatment (Example 2). The data set is classed as in vivo. The following applies: for Neurological score (NSS) vs vehicle: Day 1 and Day 8. The protocol: The study was performed in cycles, each one containing at least nine rats. Test compounds were administrated 20 minutes before reperfusion and twice a day thereafter. On Day 1, stroke was induced by the t-MCAO procedure. Neurological score (NSS), was performed before surgery, 24 hours and 7 days after t-MCAO. At study termination brains were harvested, sliced into five 2 mm thick coronal sections and stained with TTC for infarct size measurement. The experimental design and timeline for the two parts of the study are presented below.
The right Common Carotid artery (CCA) was exposed through a midline neck incision and carefully dissected free from surrounding nerves and fascia—from its bifurcation to the base of the skull. The Occipital artery branches of the External Carotid artery (ECA) were isolated, and these branches were dissected and coagulated. The ECA was dissected further distally and coagulated along with the terminal lingual and maxillary artery branches, just before their bifurcation. The Internal Carotid artery (ICA) was isolated and carefully separated from the adjacent Vagus nerve, and the Pterygopalatine artery was ligated close to its origin with a 5-0 nylon suture. […] The surgical wound was closed and the animals were returned to their cages to recover from anesthesia. One hour and half after occlusion rats were re-anesthetized and monofilament was withdrawn to allow reperfusion. The surgical wound was closed and rats were returned to their cages. Following surgery, animals were placed on a heating pad until their recovery from the anesthesia. All animals received subcutaneous Meloxicam at 2 mg/kg before and after surgery, daily during the next two days. They were observed frequently on the day of t-MCAO surgery and at least once daily thereafter.
Treatment was start 20 minutes before reperfusion and then at the end of the same day, via IP administration of the test compounds. Treatment continued twice a day for six consecutive days thereafter.
Neuroscore was graded on a scale of 0 to 18 (in which normal score is 0 and maximal deficit score is represented by 18).

For data set [3], the system named is rat superior mesenteric arteries. The conditions noted are these: cited from earlier work.
Another data set concerns the target Nurr1 (Homo sapiens, UniProt P43354). The conditions noted are these: through physical interaction with its ligand binding domain (LBD); cited from earlier work.
The subject of data set [4] is collagenase-induced intracerebral hemorrhage. The conditions noted are these: 10 μg/kg loading dose followed by 200 ng/h for up to 7 days; cited from earlier work.
Data set [5] deals with rodent models of brain ischemia and reperfusion injury. The following applies: 1 mg/kg administered 10 min before reperfusion; cited from earlier work.
Data set [6] has as its system rat model of stroke (middle cerebral artery occlusion). The following applies: 10 μg/kg IP loading dose plus 200 ng/h subcutaneous infusion beginning 4.5 h or 10 h after onset of ischemia; cited from earlier work.
Data set [7] concerns patients with large hemispheric infarctions. The conditions noted are these: intravenous 0.13 mg bolus, 0.16 mg/h for 6 h, then 0.11 mg/h for 66 h; cited from earlier work.
The subject of data set [8] is rat thromboembolic model of stroke. The following applies: continuous infusion 75 ng/h; 7 days post middle cerebral artery occlusion; cited from earlier work.
In data set [9] the test system is rodent models of subarachnoid hemorrhage. The conditions noted are these: loading dose 10 μg/kg intraperitoneally, then infusion 200 ng/hr for 24 hours or one week; cited from earlier work.
Data set [10] concerns experimental intracerebral hemorrhage in mice. The following applies: 10 μg either before or at 2 h after hemorrhage; cited from earlier work.
Data set [11] concerns patients with acute hemispheric infarction. The conditions noted are these: oral administration; cited from earlier work.
Data set [12] relates to rat model of transient middle cerebral artery occlusion (t-MCAO). In words: Brain infarct size (TTC staining, ImageJ), rat t-MCAO model, Example 2. The data set is classed as in vivo. The following applies: at termination; amodiaquine 0.5 mg/kg, potassium canrenoate 0.33 mg/kg, glibenclamide 1 μg/kg, exenatide 0.05 μg/kg; vehicle 38%.

Entries after “also recorded” stand apart in the source; their conditions may differ.

Sequence of Nurr1 (P43354 whole entry, species assumed, the tested form may be a part): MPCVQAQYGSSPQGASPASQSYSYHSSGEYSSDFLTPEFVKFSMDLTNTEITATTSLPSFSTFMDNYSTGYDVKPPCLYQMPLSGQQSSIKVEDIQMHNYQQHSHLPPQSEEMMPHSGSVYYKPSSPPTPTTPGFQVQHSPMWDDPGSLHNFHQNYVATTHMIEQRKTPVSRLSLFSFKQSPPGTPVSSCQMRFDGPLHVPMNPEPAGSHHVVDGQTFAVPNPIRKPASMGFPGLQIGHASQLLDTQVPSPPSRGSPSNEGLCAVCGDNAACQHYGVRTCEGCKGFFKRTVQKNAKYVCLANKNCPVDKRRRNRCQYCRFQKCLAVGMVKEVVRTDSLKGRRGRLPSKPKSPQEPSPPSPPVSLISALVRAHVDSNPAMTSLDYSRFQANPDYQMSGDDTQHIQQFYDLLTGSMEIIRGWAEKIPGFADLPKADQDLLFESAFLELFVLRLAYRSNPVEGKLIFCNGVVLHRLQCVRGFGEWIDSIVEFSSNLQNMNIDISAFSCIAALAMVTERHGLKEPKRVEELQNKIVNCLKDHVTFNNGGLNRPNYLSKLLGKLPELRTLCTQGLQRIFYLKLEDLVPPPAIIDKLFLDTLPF

On to `CCN(CC)Cc1cc(Nc2ccnc3cc(Cl)ccc23)ccc1O` [Amodiaquine, 4-[(7-chloroquinolin-4-yl)amino]-2[(diethylamino)methyl]-phenol], for which the “Perihematomal activation of microglia/macrophages and astrocytes” value in [1] (i.p. daily from 3 h after ICH induction) is “diminished perihematomal activation of microglia/macrophages and astrocytes”. Moreover, the “ICH-induced mRNA expression of IL-1β, CCL2 and CXCL2” value in data set [1] (i.p. daily) is “suppressed ICH-induced mRNA expression of IL-1β, CCL2 and CXCL2”. The Motor dysfunction entry in data set [1] (i.p. daily) was “ameliorated motor dysfunction”. The “Neurological score (NSS) vs vehicle” value in data set [2] (amodiaquine 0.5 mg/kg (Group 5M), 20 min before reperfusion and twice a day) is given as “Statistically significant differences; also recorded: statistically significant NSS improvement”; in [2] (amodiaquine 7 mg/kg (Group 3M), 20 min before reperfusion and twice a day), “Statistically significant differences; also recorded: statistically significant NSS improvement”; in [2] (amodiaquine 20 mg/kg (Group 2M), 20 min before reperfusion and twice a day), “Statistically significant differences; also recorded: statistically significant NSS improvement”. For the same compound, in data set [2] (amodiaquine 0.5-20 mg/kg), the “Neurological score (NSS) vs vehicle, monotherapy at different doses” value was “improved significantly and dose dependently the neurological score”. In addition, the Vasorelaxation result in [3] was “induce vasorelaxation”. Further, the “Transcriptional function of Nurr1” value at Nurr1 is reported as “stimulate the transcriptional function of Nurr1”.

Turning to `COc1ccc(Cl)cc1C(=O)NCCc1ccc(S(=O)(=O)NC(=O)NC2CCCCC2)cc1` [Glibenclamide, 5-chloro-N-[2-[4-(cyclohexylcarbamoyl-sulfamoyl)phenyl]ethyl]-2-methoxybenzamide], the “Efficacy in collagenase intracerebral hemorrhage” value in data set [4] is “not effective”. In [5], the “Efficacy in brain ischemia and reperfusion injury” value is “effective”. Besides, the “Hemispheric swelling, mortality and Garcia scores” value in data set [6] is “significantly reduced hemispheric swelling at 24 h and 48-h mortality and improved Garcia scores at 48 h”. Moreover, the “Brain swelling (midline shift), MMP-9, functional outcomes and mortality” value in data set [7] is reported as “promising findings”. For the same compound, in data set [8], the “Reduction of cerebral edema, infarct volume and mortality” value is 50%. In [9], the “Efficacy in subarachnoid hemorrhage” value was “effective”. The “Cerebral edema, BBB disruption and neurological deficit” value in data set [10] is “alleviate cerebral edema, disrupted BBB, and neurological deficit”. In [11], the 6-month functional outcome is “did not substantially improve 6-month functional outcome” and the Safety of treatment entry was “safe”.

Take `C[C@]12CCC(=O)C=C1C=C[C@@H]1[C@@H]2CC[C@@]2(C)[C@H]1CC[C@@]2(O)CCC(=O)[O-].[K+]` [Potassium canrenoate, potassium 3-[(8R,9S,10R,13S,14S,17R)-17-hydroxy-10,13-dimethyl-3-oxo-2,8,9,11,12,14,15,16-octahydro-1H-cyclopenta[a]phenanthren-17-yl]propanoate]: the “Neurological score (NSS) vs vehicle, Part II” value in data set [2] (Day 1, amodiaquine 0.5 mg/kg, potassium canrenoate 0.33 mg/kg, glibenclamide 1 μg/kg, exenatide 0.05 μg/kg, 20 min before reperfusion and twice a day) is “Statistically significant differences”. In data set [12], the “Brain infarct size vs vehicle, Part II” value is given as “Statistically significant differences in infarct size; also recorded: Less prominent decrease in infarct volume”.

With `CCN(CC)CCCC(C)Nc1ccnc2cc(Cl)ccc12` (stereo not drawn) [chloroquine], the “Transcriptional function of Nurr1” value on Nurr1 is recorded as “stimulate the transcriptional function of Nurr1”.
